Laboratory results published in ChEMBL document CHEMBL1158110, “Chaetopyranin, a benzaldehyde derivative, and other related metabolites from Chaetomium globosum, an endophytic fungus derived from the marine red alga Polysiphonia urceolata” (J Nat Prod, 2006).
≈ marks a conversion by molar mass, not a printed value.

Columns and labels:
[1] = test system: Radical scavenging activity; assay: Antioxidant activity assessed as DPPH free radical scavenging activity; format: functional
A549 = assay: Cytotoxicity against human A549 cells; format: functional, cell-based
SMMC-7721 = assay: Cytotoxicity against human SMMC7721 cells; format: functional, cell-based
HMEC = assay: Cytotoxicity against HMEC; format: cell-based; details: Homo sapiens

IC50 [1]	Structure (SMILES)	IC50 (A549)	IC50 (SMMC-7721)	IC50 (HMEC)
62 µg/mL (≈ 206 µM)	COc1cc(O)c2c(c1)C(=O)c1c(O)c(C)cc(O)c1C2=O [PARIETIN]	–	–	–
35 µg/mL (≈ 111 µM)	CC(C)=CCc1cc2c(c(C=O)c1O)CCC(/C=C/C(C)O)O2 (configuration not stated) [CHAETOPYRANIN]	39.1 µg/mL (≈ 124 µM)	28.5 µg/mL (≈ 90.1 µM)	15.4 µg/mL (≈ 48.7 µM)
26 µg/mL (≈ 86 µM)	C/C=C/CCCCc1c(O)cc(CC=C(C)C)c(O)c1C=O [ISOTETRAHYDROAUROGLAUCIN]	–	–	–
88 µg/mL (≈ 295 µM)	CCC/C=C/c1cc2c(C=O)c(O)c(CC=C(C)C)cc2o1	–	–	–
